Key:
[1] = ref Manyes et al., 2014, cited from earlier work
CaCo-2 cells = conditions: average for Enn A, A1, B and B1, ref Meca et al., 2012; cited from earlier work
[2] = Evaluation of toxicological effects: body weight, behavior, histology; type: in vivo, SCID mice; conditions: 5 mg/kg i.p., short-term and 9-day schedules
[3] = type: in vivo, CB-17 scid/scid mice; conditions: KB-3-1 xenograft
[4] = type: in vivo, SCID mice; conditions: 5 mg/kg i.p.
[5] = 5 mg/kg b.w. i.p. daily, 9 days, mean ± SD (n = 4)

CC[C@H](C)[C@H]1C(=O)O[C@H](C(C)C)C(=O)N(C)[C@@H]([C@@H](C)CC)C(=O)O[C@H](C(C)C)C(=O)N(C)[C@@H]([C@@H](C)CC)C(=O)O[C@H](C(C)C)C(=O)N1C [Enn A]
Detection in kidneys ([1]; Enn A-fed Wistar rats): no Enn A was detected in kidneys
Adverse effects (histological analyses, biochemical blood parameters) ([1]; repeated dose 20.91 mg Enn A/kg b.w./day, 28 days, feed): no adverse effects
Apparent mean bioavailability (CaCo-2 cells): 80%

CC(C)[C@H]1C(=O)O[C@H](C(C)C)C(=O)N(C)[C@@H](C(C)C)C(=O)O[C@H](C(C)C)C(=O)N(C)[C@@H](C(C)C)C(=O)O[C@H](C(C)C)C(=O)N1C [Enn B, Enniatin B]
Apparent signs of toxicity (food and fluid consumption, fatigue, body weight alterations) [2]: None of the treatment schedules showed apparent signs of toxicity
Concentration in serum [3, 5]: 5.4 ± 0.2 µg/kg
Concentration in tumor [3, 5]: 2.8 ± 0.8 µg/kg
Degradation products (metabolites) in tumor tissues ([3]; 9-day treatment, 5 mg/kg i.p.): no degradation products could be found
Concentration in liver, quantified with Enn B calibration curve ([4]; 2-days Enn B-treated SCID mice): 2.9 ± 0.6 µg/kg
Metabolites in serum, brain, muscle and kidney ([4]; short-term treatment): no metabolites were found
Apparent mean bioavailability (CaCo-2 cells): 80%

CC[C@H](C)[C@H]1C(=O)O[C@H](C(C)C)C(=O)N(C)[C@@H]([C@@H](C)CC)C(=O)O[C@H](C(C)C)C(=O)N(C)[C@@H](C(C)C)C(=O)O[C@H](C(C)C)C(=O)N1C [Enn A1]
Apparent mean bioavailability (CaCo-2 cells): 80%

CC(C)C1NC(=O)C(C(C)C)OC(=O)C(C(C)C)N(C)C(=O)C(C(C)C)OC(=O)C(C(C)C)N(C)C(=O)C(C(C)C)OC1=O (stereo not shown) [Mono-demethylated-Enn B]
Concentration in colon, quantified with Enn B calibration curve ([4]; 2-days Enn B-treated SCID mice): 0.6 ± 0.09 µg/kg
Concentration in liver, quantified with Enn B calibration curve ([4]; 2-days Enn B-treated SCID mice): 0.7 ± 0.1 µg/kg
